The values that follow are results of earlier work, collected in patent publication US5348950A, “Platinum(II) complex and antitumor agent” (Toray Industries, Inc., priority 1991, dated 1994).

For the data set the following is noted: background statement.

Turning to `N.N.O=C([O-])C1(C(=O)[O-])CCC1.[Pt+2]` [CBDCA, cisdiammine(1,1-cyclobutanedicarboxylato)platinum(II)], the anti-tumor activity result is “low anti-tumor activity”. Take `N.N.[Cl][Pt][Cl]` [CDDP, cisdiamminedichloroplatinum(II)]: the side effects entry is “strong side effects”.
